Assay results reported in US20210001143A1, “FOCAL PHOTODYNAMIC THERAPY METHODS” (STEBA MAOR SA, priority 2011, published 2021).

Legend:
[1] = test system: low risk organ-confined prostate cancer; assay: Vascular-targeted photodynamic therapy (VTP), 6 month TRUS-guided biopsy; format: in vivo, human; details: study PCM201, 4 mg/kg intravenously, light 200 J/cm, men
Experimental: (§1) Men with low risk organ-confined prostate cancer (Gleason 3+3 on minimum 10 core TRUS biopsy) were recruited into two consecutive studies: PCM201 (a dose escalation study) or PCM203 (a confirmatory study). The vascular-targeted photodynamic therapy (“VTP”) procedure, carried out under general anesthesia, involved administration of TOOKAD® Soluble intravenously at 4 mg/kg, which was then activated by low power laser light delivered locally to the prostate via a brachytherapy-style transperineal template with a light density of 200 J/cm. Planned treatment volume (“PTV”, in mls) was determined by the location of tumor on biopsy and by MRI, and varied in volume from less than one lobe, to the whole prostate.
(§2) The Light Density Index (“LDI”) was calculated as LDI=Σ(n)L/PTV, where Σ(n)L is the total length of all illuminating fibers (in cm), and PTV is the planned treatment volume, in mls.
(§3) This was also correlated with the result of 6 month transrectal ultrasound (TRUS)-guided biopsy (positive or negative for any cancer).
(§4) The correlation between LDI and the volume of tissue necrosis at day 7 and with the rate of negative biopsies at Month 6 was assessed in search of a threshold.
(§5) 90 men were treated with a TOOKAD® Soluble dose of 4 mg/kg and a light dose of 200 J/cm in the two studies. Of these 89 were analyzable for LDI.

[2] = test system: low risk organ-confined prostate cancer; assay: Vascular-targeted photodynamic therapy (VTP), early treatment effect on 1 week MRI (lack of gadolinium uptake); format: in vivo, human; details: 4 mg/kg intravenously, light 200 J/cm, men
Experimental: as §1, §2, §3, §4, §5

Substance: Palladium 3^1-oxo-15-methoxycarbonylmethyl-rhodobacteriochlorin 13^1-(2-sulfoethyl) amide dipotassium salt [TOOKAD® Soluble]
- % of negative biopsies (6 months) ([1]; LDI < 1): 31 (4/17) %
- % of negative biopsies (6 months) ([1]; LDI ≥ 1): 83 (10/12) %
- Treatment effect on 1 week MRI as % of PTV ([2]; study PCM201, LDI < 1): 59 (17) % of PTV
- Treatment effect on 1 week MRI as % of PTV ([2]; study PCM201, LDI ≥ 1): 95 (12) % of PTV
- Treatment effect on 1 week MRI as % of PTV ([2]; study PCM203, LDI < 1): 60 (22) % of PTV
- Treatment effect on 1 week MRI as % of PTV ([2]; study PCM203, LDI ≥ 1): 94 (28) % of PTV
